Laboratory results published in US20250154145A1, “OXER1 ANTAGONISTS AND USES THEREOF” (Fairhaven Pharmaceuticals Ins., priority 2021, published 2025).

Legend:
[1] = target: T1, Human OXER1 (Homo sapiens, UniProt Q8TDS5); assay: BRET early endosome trafficking assay (OXER1-Rluc8 / rGFP-FYVE in HEK293 cells); type: cell-based; details: HEK293 cells transfected with OXER1-Rluc8 and rGFP-FYVE, 5-oxo-ETE agonist
T1 construct: host or cells: HEK293 cells, transient transfection
Excerpt: Background—The following assay can be used for determination of OXER1 activation in living HEK293 cells. Signalling functions of GPCRs are tightly regulated by endocytosis, the targeting of receptors to endosomes and their sorting to lysosomes or recycling to the plasma membrane. The early endosomes (EEs) trafficking assay (Namkung et al., Monitoring G protein-coupled receptor and β-arrestin trafficking in live cells using enhanced bystander BRET, Nat Commun 2016, 7: 12178) uses Rluc8-tagged OXER1 and Renilla GFP (rGFP) attached to the FYVE domain from human endofin/zinc finger FYVE domain-containing protein 16, which binds phosphatidylinositol 3-phosphate in EEs. Agonist stimulation of OXER1-Rluc8 leads to trafficking of the receptor to EEs, and ensuing increase of the donor concentration relative to the rGFP-FYVE acceptor anchored in the same cellular compartment, and thus results in an increase in BRET signal.
Plasmids—Human OXER1 VersaClone cDNA was obtained from R&D Systems. Rluc8 (A55T, C124A, S130A, K136R, A143M, M185V, M253L, and S287L variant of theRenilla renformis luciferase) gBlocks gene fragment (Integrated DNA Technologies, IA) was inserted with linker in frame at the C-terminus of OXER1. The FYVE domain from human endofin (residues Q739 to K806) attached in frame at the C terminus of a humanized Renilla GFP (rGFP), were synthesized as gBlocks gene fragments.
Bioluminescence Resonance Energy Transfer (BRET) Measurement—HEK293 cells were transfected with OXER1-Rluc8 and rGFP-FYVE. The following day, transiently transfected cells were seeded in 96-well white clear bottom microplates coated with poly-D-lysine and left in culture for 24 hours. Cells were washed once with Tyrode's buffer (140 mmol/L NaCl, 1 mmol/L CaCl2, 2.7 mmol/L KCl, 0.49 mmol/L MgCl2, 0.37 mmol/L NaH2PO4, 5.6 mmol/L glucose, 12 mmol/L NaHCO3, and 25 mmol/L HEPES, pH 7.5) before performing assays in Tyrode's buffer. Test compounds were incubated with cells for 15 minutes at 37° C. before addition of […] of the OXER1 agonist 5-oxo-6E,8Z,1IZ,14Z-eicosatetraenoic acid (5-oxo-ETE) for 45 minutes at 37° C. The Rluc8 substrate coelenterazine 400A (Prolume, Lakeside, AZ) was added at a final concentration of […] and BRET readings were collected using a Spark or Infinite M1000 microplate reader (Tecan, Morrisville, NC). BRET^2 readings between Rluc8 and rGFP were collected by sequential integration of the signals detected in the 370 to 450 nm (Rluc8) and 510 to 540 nm (rGFP) windows. The BRET signal was calculated as the ratio of light emitted by acceptor (rGFP) over the light emitted by donor (Rluc8). Ligand-promoted net BRET values were calculated by subtracting vehicle-induced net BRET from ligand-induced net BRET.

[2] = test system: neutrophils; assay: Neutrophil calcium flux assay (5-OXO-ETE-stimulated, Indo-1 fluorescence); type: cell-based; details: Neutrophil, 5-OXO-ETE-stimulated calcium flux
Method in brief: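 Indo-1-loaded neutrophils (5×10^6 cells/ml, 30 min at 37 °C) in HBSS with Ca/Mg and HEPES, pre-incubated 5 min with antagonist or buffer. Stimulated with 5-OXO-ETE added at 200 nM (4× stock); fluorescence (ex 331/em 410 nm) read every 5 s for 30 cycles, expressed as net fluorescence.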

T1 sequence (Q8TDS5 whole entry): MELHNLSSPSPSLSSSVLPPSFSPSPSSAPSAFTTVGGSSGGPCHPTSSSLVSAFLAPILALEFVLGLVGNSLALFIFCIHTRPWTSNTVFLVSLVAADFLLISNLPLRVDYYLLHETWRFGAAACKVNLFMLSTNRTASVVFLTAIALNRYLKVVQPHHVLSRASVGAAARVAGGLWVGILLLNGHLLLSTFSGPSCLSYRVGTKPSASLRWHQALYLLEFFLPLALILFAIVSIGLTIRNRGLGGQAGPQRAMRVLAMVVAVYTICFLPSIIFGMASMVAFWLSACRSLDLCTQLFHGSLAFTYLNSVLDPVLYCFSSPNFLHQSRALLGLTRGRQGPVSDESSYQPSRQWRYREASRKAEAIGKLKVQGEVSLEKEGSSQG

Compound | IC50 [1] | IC50 [2]
CC(C)C#CCCCCCCc1c(C(=O)C[C@H](C)CC(=O)O)c2cc(Cl)ccc2n1C [Compound I-68] | < 100 nM | < 100 nM
C[C@H](CC(=O)O)CC(=O)c1c(CCCCCOc2cccc(Cl)c2)n(C)c2ccc(Cl)cc12 [Compound I-59] | 100 to 300 nM | < 100 nM
C[C@H](CC(=O)O)CC(=O)c1c(CCCCOCc2cccc(Cl)c2)n(C)c2ccc(C#N)cc12 [Compound I-180] | < 100 nM | < 100 nM
C[C@H](CC(=O)NS(C)(=O)=O)CC(=O)c1c(CCCCCCc2cccc(Cl)c2)n(C)c2ccc(Cl)cc12 [Compound I-14] | 100 to 300 nM | 100 to 300 nM
C[C@H](CC(=O)O)CC(=O)c1c(CCCCOCc2cccc(Cl)c2)n(C)c2ncc(C(F)(F)F)cc12 [Compound I-182] | 100 to 300 nM | < 100 nM
[2H]C([2H])([2H])n1c(CCCCCCc2cccc(Cl)c2)c(C(=O)C[C@H](C)CC(=O)O)c2cc(Cl)ccc21 [Compound I-40] | < 100 nM | < 100 nM
CC(CC(=O)O)CC(=O)c1c(CCCCOCc2cccc(Cl)c2)n(C)c2ccc(C(F)(F)F)cc12 (centres unmarked) [Compound I-185] | 100 to 300 nM | < 100 nM
C[C@H](CC(=O)O)CC(=O)c1c(CCCCCC(O)c2cccc(Cl)c2)n(C)c2ccc(Cl)cc12 (some centres unmarked) [Compound I-44] | < 100 nM | < 100 nM
C[C@H](CC(=O)O)CC(=O)n1c(CCCCCCc2cccc(Cl)c2)cc2ccc(Cl)cc21 [Compound I-39] | 100 to 300 nM | > 300 nM
C[C@@H](CC(=O)O)CC(=O)c1c(CCCCCCc2cccc(Cl)c2)n(C)c2ccc(Cl)cc12 [Compound I-1] | 100 to 300 nM | > 300 nM
C[C@@H](CC(=O)c1c(CCCCCCc2cccc(Cl)c2)n(C)c2ccc(Cl)cc12)Cc1nnn[nH]1 [Compound I-13] | < 100 nM | < 100 nM
C[C@H](CC(=O)O)CC(=O)c1c(CCCCCCc2cccc(Cl)c2)sc2ccc(Cl)cc12 [Compound I-23] | < 100 nM | 100 to 300 nM
C[C@@H](CC(=O)O)CC(=O)c1c(CCCCCCc2ccccc2)n(C)c2ccc(Cl)cc12 [Compound I-8] | > 300 nM | > 300 nM
CC(CC(=O)O)CC(=O)c1c(CCCCOCc2ccccc2)n(C)c2ncc(C#N)cc12 (centres unmarked) [Compound I-104] | 100 to 300 nM | < 100 nM
C[C@H](CC(=O)O)CC(=O)c1c(CCCCCC(=O)c2cccc(Cl)c2)n(C)c2ccc(Cl)cc12 [Compound I-45] | 100 to 300 nM | 100 to 300 nM
C[C@H](CC(=O)O)CC(=O)c1c(CCCCCCc2cccc(Cl)c2)n(C)c2ccc(C#N)cc12 [Compound I-98] | < 100 nM | < 100 nM
C[C@H](CC(=O)O)CC(=O)c1c(CCCCCCc2cccc(Cl)c2)oc2ccc(Cl)cc12 [Compound I-21] | 100 to 300 nM | > 300 nM
C[C@H](CC(=O)O)CC(=O)c1c(CCCCCCc2ccc(O)cc2)n(C)c2ccc(Cl)cc12 [Compound I-10] | < 100 nM | < 100 nM
C[C@H](CC(=O)O)CC(=O)c1c(CCCCOCc2cccc(Cl)c2)n(C)c2ncc(Cl)cc12 [Compound I-83] | 100 to 300 nM | < 100 nM

Compound | IC50 [1] | IC50 [2]
C[C@H](CC(=O)O)CC(=O)c1c(CCCCCC(O)c2cccc(Cl)c2)n(C)c2ncc(Cl)cc12 (some centres unmarked) [Compound I-85] | < 100 nM | < 100 nM
C[C@H](CC(=O)O)CC(=O)c1c(CCCCCCc2ccc(O)c(Cl)c2)n(C)c2ccc(Cl)cc12 [Compound I-48] | < 100 nM | < 100 nM
C[C@H](CC(=O)O)CC(=O)c1c([C@@H](O)CCCCCc2cccc(Cl)c2)n(C)c2ccc(Cl)cc12 [Compound I-3] | < 100 nM | > 300 nM
C[C@H](CC(=O)O)CC(=O)c1c(CCCCOCc2cccc(Cl)c2)n(C)c2ccc(Cl)cc12 [Compound I-60] | 100 to 300 nM | < 100 nM
C[C@@H](CC(=O)O)CC(=O)c1c([C@@H](O)CCCCCc2cccc(Cl)c2)n(C)c2ccc(Cl)cc12 [Compound I-4] | > 300 nM | > 300 nM
CONC(=O)C[C@H](C)CC(=O)c1c(CCCCCCc2cccc(Cl)c2)n(C)c2ccc(Cl)cc12 [Compound I-20] | > 300 nM | 100 to 300 nM
C[C@H](CC(=O)O)CC(=O)c1c([C@H](O)CCCCCc2cccc(Cl)c2)n(C)c2ccc(Cl)cc12 [Compound I-5] | > 300 nM | > 300 nM
C[C@H](CC(=O)O)CC(=O)c1c(CCCCCCc2cccc(Cl)c2)n(C)c2ccc(Cl)cc12 [Compound I-2] | < 100 nM | < 100 nM
C[C@@H](CC(=O)O)CC(=O)c1c([C@H](O)CCCCCc2cccc(Cl)c2)n(C)c2ccc(Cl)cc12 [Compound I-6] | > 300 nM | > 300 nM
CONC(=O)C[C@@H](C)CC(=O)c1c(CCCCCCc2cccc(Cl)c2)n(C)c2ccc(Cl)cc12 [Compound I-19] | > 300 nM | > 300 nM
CCCCCCc1c(C(=O)C[C@H](C)CC(=O)O)c2cc(Cl)ccc2n1C [Compound I-11] | 100 to 300 nM | 100 to 300 nM
C[C@H](CC(=O)O)CC(=O)c1c(CCCCOCc2ccccc2)n(C)c2ncc(C#N)cc12 [Compound I-105] | 100 to 300 nM | < 100 nM
C[C@H](CC(=O)O)CC(=O)c1c(CCCCCC(F)c2cccc(Cl)c2)n(C)c2ccc(Cl)cc12 (some centres unmarked) [Compound I-47] | < 100 nM | < 100 nM
C[C@H](CC(=O)O)CC(=O)c1c(CCCCCCc2cccc(F)c2)n(C)c2ccc(Cl)cc12 [Compound I-9] | < 100 nM | < 100 nM
C[C@H](CC(=O)NO)CC(=O)c1c(CCCCCCc2cccc(Cl)c2)n(C)c2ccc(Cl)cc12 [Compound I-17] | > 300 nM | > 300 nM
CC(C)CCOCc1c(C(=O)C[C@H](C)CC(=O)O)c2cc(Cl)ccc2n1C [Compound I-73] | > 300 nM | > 300 nM
C[C@@H](CC(=O)O)CC(=O)c1c(CCCCCCc2cccc(Cl)c2)oc2ccc(Cl)cc12 [Compound I-22] | 100 to 300 nM | > 300 nM
C[C@H](CC(=O)O)CC(=O)c1c(CCCCCCc2ccccc2)n(C)c2ccc(Cl)cc12 [Compound I-7] | < 100 nM | < 100 nM
